Assay results: US5591891A, “N-[Mercaptoacyl (amino acid or peptide ) ] compounds and S-lipophiIic aliphatic carbonyl derivatives thereof as antihypertensives” (Institut National de la Sante et de la Recherche Medicale …, priority 1994, dated 1997)

What was measured:
NEP [1] = biological target: T1, NEP (Rattus norvegicus, UniProt P07861); settings: aids in reducing blood pressure; cited from earlier work
T1 construct: thereby aids in reducing blood pressure in the rat; host or cells: rat, in vivo
T1 sequence (P07861 1-750): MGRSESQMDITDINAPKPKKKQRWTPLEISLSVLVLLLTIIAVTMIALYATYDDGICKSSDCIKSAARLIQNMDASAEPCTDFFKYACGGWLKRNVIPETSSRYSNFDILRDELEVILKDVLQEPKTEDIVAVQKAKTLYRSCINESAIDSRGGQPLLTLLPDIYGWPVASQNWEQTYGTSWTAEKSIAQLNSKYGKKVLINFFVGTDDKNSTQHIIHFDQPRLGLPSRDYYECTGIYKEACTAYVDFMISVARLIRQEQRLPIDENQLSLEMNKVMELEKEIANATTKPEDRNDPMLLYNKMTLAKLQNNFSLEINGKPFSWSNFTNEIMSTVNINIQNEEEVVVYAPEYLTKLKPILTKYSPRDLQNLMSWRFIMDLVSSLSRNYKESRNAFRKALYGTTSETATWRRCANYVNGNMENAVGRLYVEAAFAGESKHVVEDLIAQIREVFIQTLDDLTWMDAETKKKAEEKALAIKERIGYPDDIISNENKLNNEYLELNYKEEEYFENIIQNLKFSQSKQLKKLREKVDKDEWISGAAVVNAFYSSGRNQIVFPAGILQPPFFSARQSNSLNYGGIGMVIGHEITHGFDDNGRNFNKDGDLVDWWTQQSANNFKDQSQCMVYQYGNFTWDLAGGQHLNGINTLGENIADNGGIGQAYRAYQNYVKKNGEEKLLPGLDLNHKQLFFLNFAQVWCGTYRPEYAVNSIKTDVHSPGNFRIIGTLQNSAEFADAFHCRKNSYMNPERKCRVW

NEP [2] = biological target: T2, NEP (Mus musculus, UniProt Q61391); experiment: In vivo inhibition of NEP in mouse kidney after oral administration ([3H]HACBOGly binding); settings: oral 2.6×10^-5 mole/kg, mean of three determinations
T2 construct: the kidney is rapidly set apart and homogenized at 4° C. in a Tris HCl buffer; from tissue; host or cells: mouse kidney (in vivo, then homogenate)
T2 sequence (Q61391 1-750): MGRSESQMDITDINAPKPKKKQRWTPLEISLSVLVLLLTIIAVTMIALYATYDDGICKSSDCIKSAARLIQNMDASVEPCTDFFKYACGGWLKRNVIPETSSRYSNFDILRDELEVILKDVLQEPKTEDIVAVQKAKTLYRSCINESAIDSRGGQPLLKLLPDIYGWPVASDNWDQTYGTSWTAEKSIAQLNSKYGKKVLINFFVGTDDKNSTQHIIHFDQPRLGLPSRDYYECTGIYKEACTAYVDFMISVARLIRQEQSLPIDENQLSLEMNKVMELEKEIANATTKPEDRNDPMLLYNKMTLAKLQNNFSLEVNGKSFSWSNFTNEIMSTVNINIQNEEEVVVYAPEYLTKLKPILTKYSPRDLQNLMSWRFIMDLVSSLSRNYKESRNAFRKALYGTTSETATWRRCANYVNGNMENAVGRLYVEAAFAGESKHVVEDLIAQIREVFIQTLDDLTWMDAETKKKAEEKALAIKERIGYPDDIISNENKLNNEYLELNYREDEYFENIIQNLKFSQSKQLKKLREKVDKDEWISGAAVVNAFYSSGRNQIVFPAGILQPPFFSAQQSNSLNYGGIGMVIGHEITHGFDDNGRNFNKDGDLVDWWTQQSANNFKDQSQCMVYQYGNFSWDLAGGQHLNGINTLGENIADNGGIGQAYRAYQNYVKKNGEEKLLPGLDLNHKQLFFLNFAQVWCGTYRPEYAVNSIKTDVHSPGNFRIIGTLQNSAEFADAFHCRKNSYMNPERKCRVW
Description: (§1) [S,S,S]-N-[2-Adamantoylthiomethyl-1-oxo-3-phenylbutyl]alanine, a diastereomeric mixture of N-[2-acetylthiomethyl-1-oxo-3-phenylbutyl]alanine (four diastereomers) and a control solution of saline are orally administered at a concentration of 2.6×10^-5 mole/kg) in mice at t=o.
(§2) The inhibition of NEP in the kidney is expressed as the difference (in %) between specific [^3 H]HACBOGly binding in the absence of inhibitor (controls injected with saline) and in the presence of inhibitor. The inhibition values in Table V are the mean value of three determinations.

ACE = biological target: T3, ACE (Mus musculus, UniProt P09470); experiment: In vivo inhibition of ACE in mouse after oral administration ([3H]Trandaloprilate binding); settings: oral 2.6×10^-5 mole/kg, mean of three determinations
T3 construct: from tissue; host or cells: mouse tissue in vivo
T3 sequence (P09470 35-1312): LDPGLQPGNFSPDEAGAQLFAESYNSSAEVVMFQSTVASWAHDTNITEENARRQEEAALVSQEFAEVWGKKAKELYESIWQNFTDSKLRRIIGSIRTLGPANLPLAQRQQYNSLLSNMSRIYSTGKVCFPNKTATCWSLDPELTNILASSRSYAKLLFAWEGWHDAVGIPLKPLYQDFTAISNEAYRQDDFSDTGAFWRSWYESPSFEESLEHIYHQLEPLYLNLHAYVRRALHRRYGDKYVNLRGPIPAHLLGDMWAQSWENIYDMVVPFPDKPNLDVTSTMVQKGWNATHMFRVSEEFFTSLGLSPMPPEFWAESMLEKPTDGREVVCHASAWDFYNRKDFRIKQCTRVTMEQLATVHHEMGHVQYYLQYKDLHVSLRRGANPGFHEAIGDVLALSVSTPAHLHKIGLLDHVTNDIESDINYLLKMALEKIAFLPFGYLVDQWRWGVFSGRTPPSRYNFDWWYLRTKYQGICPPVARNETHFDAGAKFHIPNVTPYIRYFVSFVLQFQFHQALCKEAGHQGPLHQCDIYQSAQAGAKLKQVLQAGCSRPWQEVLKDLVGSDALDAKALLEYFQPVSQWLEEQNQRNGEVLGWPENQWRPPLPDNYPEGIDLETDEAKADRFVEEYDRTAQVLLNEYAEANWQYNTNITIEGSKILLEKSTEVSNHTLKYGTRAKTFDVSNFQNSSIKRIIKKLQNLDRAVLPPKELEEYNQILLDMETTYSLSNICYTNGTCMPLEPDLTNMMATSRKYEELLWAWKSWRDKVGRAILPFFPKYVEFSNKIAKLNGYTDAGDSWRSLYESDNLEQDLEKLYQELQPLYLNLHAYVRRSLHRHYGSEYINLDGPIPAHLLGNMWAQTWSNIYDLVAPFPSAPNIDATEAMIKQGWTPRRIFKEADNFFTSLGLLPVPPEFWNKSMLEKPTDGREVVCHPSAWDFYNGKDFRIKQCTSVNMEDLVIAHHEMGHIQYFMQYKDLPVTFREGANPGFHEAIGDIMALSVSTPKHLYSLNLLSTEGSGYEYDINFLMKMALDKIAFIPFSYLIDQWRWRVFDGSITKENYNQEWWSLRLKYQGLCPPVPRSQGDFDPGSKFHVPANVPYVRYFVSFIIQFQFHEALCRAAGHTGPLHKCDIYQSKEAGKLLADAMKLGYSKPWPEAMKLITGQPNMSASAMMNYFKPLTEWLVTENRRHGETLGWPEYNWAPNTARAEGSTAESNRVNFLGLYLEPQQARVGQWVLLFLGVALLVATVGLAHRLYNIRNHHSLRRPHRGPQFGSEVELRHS
Description: as §1, §2
The protocol in Example 91 is used also to determine […] inhibition except for the following: the selective tritiated ACE inhibitor is [^3 H]Trandaloprilate (0.5 μCi); and the non-specific binding is determined by the co-administration of [^3 H]Trandaloprilate with 1000 eq. of captopril.

Row | Compound | half-life of circulating auricular natriuretic peptide (NEP [1]) | % Inhibition NEP (NEP [2]; time 30 min) [%] | % Inhibition NEP (NEP [2]; time 240 min) [%] | % Inhibition ACE (ACE; time 30 min) [%] | % Inhibition ACE (ACE; time 240 min) [%]
1 | O=C(O)CNC(=O)C(CS)Cc1ccccc1 (racemic) [Thiorphan, N-(2-mercapto-methyl-3-phenyl-1-oxopropyl)glycine] | capable of augmenting the half-life of circulating auricular natriuretic peptide | – | – | – | –
2 | C[C@H](NC(=O)[C@@H](CSC(=O)C12CC3CC(CC(C3)C1)C2)[C@H](C)c1ccccc1)C(=O)O [91(A), [S,S,S]--N-[2-adamantoylthiomethyl-1-oxo-3-phenylbutyl]alanine] | – | 85 | 70 | 75 | 30
3 | CC(=O)SCC(C(=O)N[C@@H](C)C(=O)O)C(C)c1ccccc1 (stereo partly drawn) [91(B), N-[2-acetylthiomethyl-1-oxo-3-phenylbutyl]alanine] | – | 65 | 45 | 30 | 15
